US9969742B2, “Imidazotriazinone compounds” (Ironwood Pharmaceuticals, Inc., priority 2012, dated 2018)
Where two headings read alike, the source gives them in different places.

How the values were obtained:
Assay type in all cases: biochemical
PDE9A2 = biological target: T1, PDE9A2 (Homo sapiens, UniProt O76083); assay: Phosphodiesterase enzyme screening assay, PDE9A2; conditions: 4.0 μM cGMP substrate, 1 hour at R.T., read-out: Band (PDE9A2 IC50)
T1 construct: purchased Reaction Biology Corporation, Malvern, Pa
T1 sequence (O76083 1-533 isoform O76083-2): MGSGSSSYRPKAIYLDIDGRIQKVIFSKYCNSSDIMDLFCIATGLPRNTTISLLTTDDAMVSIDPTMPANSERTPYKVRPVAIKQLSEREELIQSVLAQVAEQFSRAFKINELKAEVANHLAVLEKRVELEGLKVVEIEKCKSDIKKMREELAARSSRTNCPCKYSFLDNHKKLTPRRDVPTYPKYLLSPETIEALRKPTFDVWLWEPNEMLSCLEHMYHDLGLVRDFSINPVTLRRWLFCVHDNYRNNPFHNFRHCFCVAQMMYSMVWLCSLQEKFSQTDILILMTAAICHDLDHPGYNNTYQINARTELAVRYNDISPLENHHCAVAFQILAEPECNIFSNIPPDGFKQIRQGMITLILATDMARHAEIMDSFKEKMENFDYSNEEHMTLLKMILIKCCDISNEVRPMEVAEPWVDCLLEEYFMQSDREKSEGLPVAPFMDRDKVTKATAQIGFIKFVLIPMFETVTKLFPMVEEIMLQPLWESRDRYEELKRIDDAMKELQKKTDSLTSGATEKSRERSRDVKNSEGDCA
In short: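 Read-out was electrophoretic mobility-shift separation on chip of fluorescent cyclic nucleotide from 5′-AMP/5′-GMP, with inhibition or enhancement judged against control wells (quadruplicate means). Reactions lasted 1 h at RT in HEPES pH 7.5 buffer with MgCl2, DTT and Brij plus 4.0 μM cGMP substrate, then were halted with EDTA stop buffer.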

PDE1B = biological target: T2, PDE1B (Homo sapiens, UniProt Q01064); assay: Phosphodiesterase enzyme screening assay, PDE1B
T2 construct: purchased Reaction Biology Corporation, Malvern, Pa
T2 sequence (Q01064 whole entry): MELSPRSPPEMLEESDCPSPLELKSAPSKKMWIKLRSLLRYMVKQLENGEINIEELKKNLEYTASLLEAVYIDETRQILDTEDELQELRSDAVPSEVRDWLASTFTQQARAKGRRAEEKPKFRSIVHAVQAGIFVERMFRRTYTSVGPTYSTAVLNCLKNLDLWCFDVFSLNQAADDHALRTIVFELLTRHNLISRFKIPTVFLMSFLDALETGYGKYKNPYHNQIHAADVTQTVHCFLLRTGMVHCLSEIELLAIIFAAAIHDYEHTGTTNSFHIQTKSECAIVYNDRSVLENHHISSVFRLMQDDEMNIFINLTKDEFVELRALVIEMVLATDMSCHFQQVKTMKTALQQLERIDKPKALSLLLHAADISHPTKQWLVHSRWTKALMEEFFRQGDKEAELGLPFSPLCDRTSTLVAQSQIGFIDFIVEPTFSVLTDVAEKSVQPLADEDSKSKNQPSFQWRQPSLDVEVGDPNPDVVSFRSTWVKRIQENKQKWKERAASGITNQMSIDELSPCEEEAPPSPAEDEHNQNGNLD
From the text: (§1) Compounds of the invention were screened against PDE1A, PDE1B, PDE2A, PDE3A, PDE3B, PDE4A1A, PDE4B1, PDE4D3, PDE5A1, PDE6C, PDE7A, PDE8A1, PDE9A2, PDE10A2 AND PDE11A isoforms of the phosphodiesterase enzyme to determine activity and overall selectivity through comparative analysis. […] Where 8-methoxy-IBMX and Zaprinast were used as reference inhibitors.
(§2) The phosphodiesterase enzyme isoforms were obtained from a commercial retailer (Reaction Biology Corporation, Malvern, Pa.) for use in the instant screening assay.
(§3) The analysis was completed using the Caliper LabChip 3000 and a 12-sipper LabChip. LabChip assays are separations-based, meaning that the product and substrate are electrophoretically separated, thereby minimizing interferences and yielding the highest data quality available on any screening platform. […] High Z′ values, few false positives, few false negatives and analytical quality reproducibility are the reasons cited for the increasing reliance on the LabChip assays.
(§4) The off-chip incubation mobility-shift phosphodiesterase assay uses a microfluidic chip to measure the conversion of a fluorescent cyclic AMP substrate to a 5′-AMP product, or a cyclic GMP substrate to a 5′-GMP product. The reaction mixture, from a microtiter plate well, is introduced through a capillary sipper onto the chip, where the fluorescent substrate and product are separated by electrophoresis and detected via laser-induced fluorescence. […] The precision of microfluidics allows researchers to detect subtle interactions between drug candidates and therapeutic targets.
(§5) Reactions were carried out in 100 mM HEPES (pH 7.5), 5 mM MgCl2, 1 mM DTT, 0.003% Brij, 4.0 μM cGMP substrate. The reaction was started by addition of cGMP or cAMP and incubated for 1 hour at R.T. The reaction was terminated by the addition of stop buffer containing 100 mM HEPES (pH 7.5), 15 mM EDTA, 0.015% Brij-35, 5% DMSO. Cyclic AMP/GMP substrate and 5′-AMP/5′-GMP product were separated by charge using electrophoretic mobility shift. Product formed was compared to control wells to determine inhibition or enhancement of enzyme activity.
(§6) Data points were averages of quadruplicate wells and error bars represented the SEM for each point.

PDE1A = biological target: T3, PDE1A (Homo sapiens, UniProt P54750); assay: Phosphodiesterase enzyme screening assay, PDE1A
T3 construct: purchased Reaction Biology Corporation, Malvern, Pa
T3 sequence (P54750 whole entry): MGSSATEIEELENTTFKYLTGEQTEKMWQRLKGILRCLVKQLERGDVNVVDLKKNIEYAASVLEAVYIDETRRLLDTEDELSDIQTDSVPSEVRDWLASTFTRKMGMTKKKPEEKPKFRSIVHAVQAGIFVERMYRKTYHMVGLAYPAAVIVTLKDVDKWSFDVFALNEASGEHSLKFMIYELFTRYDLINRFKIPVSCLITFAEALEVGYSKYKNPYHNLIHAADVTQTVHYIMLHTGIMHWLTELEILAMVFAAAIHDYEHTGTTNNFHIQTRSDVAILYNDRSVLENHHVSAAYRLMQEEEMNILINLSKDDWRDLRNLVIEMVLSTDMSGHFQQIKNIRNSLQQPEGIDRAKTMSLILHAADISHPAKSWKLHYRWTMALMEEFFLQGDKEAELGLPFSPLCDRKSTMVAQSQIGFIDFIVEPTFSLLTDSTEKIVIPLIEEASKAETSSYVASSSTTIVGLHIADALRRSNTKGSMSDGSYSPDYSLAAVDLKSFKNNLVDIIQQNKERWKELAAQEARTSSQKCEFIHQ
From the text: as §1, §2, §3, §4, §5, §6

[1] = Table 1, ratio of IC50 values, value greater than 1 indicates greater selectivity for PDE9A2
[2] = ratio of IC50 values PDE1B / PDE9A2, value greater than 1 = greater selectivity for PDE9A2
[3] = ratio of IC50 values PDE1A / PDE9A2, value greater than 1 = greater selectivity for PDE9A2

| SMILES | IC50 (PDE9A2; Table 1, 10 concentrations) [nM] | PDE1B selectivity (versus PDE9A2) (PDE1B; [1]) | PDE1A selectivity (versus PDE9A2) (PDE1A; [1]) | IC50 (PDE9A2) [nM] | PDE1B selectivity (versus PDE9A2) (PDE1B; [2]) | PDE1A selectivity (versus PDE9A2) (PDE1A; [3]) |
| --- | --- | --- | --- | --- | --- | --- |
| CC1CN(Cc2c(F)ccc(F)c2Cl)CC1c1nn2c(C3CCOCC3)ncc2c(=O)[nH]1 (single isomer, unassigned; (+)) [(+)-2-((3,4-trans)-1-(2-chloro-3,6-difluorobenzyl)-4-methylpyrrolidin-3-yl)-7-(tetrahydro-2H-pyran-4-yl)imidazo[5,1-f][1,2,4]triazin-4(3H)-one] | – | – | – | < 1000 | 231 | 118 |
| CC1CN(Cc2cc(F)ccc2Cl)CC1c1nn2c(C3CCOCC3)ncc2c(=O)[nH]1 (single isomer, unassigned; (+)) [(+)-2-((3,4-trans)-1-(2-chloro-5-fluorobenzyl)-4-methylpyrrolidin-3-yl)-7-(tetrahydro-2H-pyran-4-yl)imidazo[5,1-f][1,2,4]triazin-4(3H)-one] | – | – | – | < 1000 | 73 | 177 |
| CC1CN(Cc2c(F)cccc2Cl)CC1c1nn2c(C3CCOCC3)ncc2c(=O)[nH]1 (single isomer, unassigned; (+)) [(+)-2-((3,4-trans)-1-(2-chloro-6-fluorobenzyl)-4-methylpyrrolidin-3-yl)-7-(tetrahydro-2H-pyran-4-yl)imidazo[5,1-f][1,2,4]triazin-4(3H)-one] | – | – | – | < 1000 | 252 | 196 |
| COc1ccccc1CN1CC(C)C(c2nn3c(C4CCOCC4)ncc3c(=O)[nH]2)C1 (single isomer, unassigned; (+)) [(+)-2-((3,4-trans)-1-(2-methoxybenzyl)-4-methylpyrrolidin-3-yl)-7-(tetrahydro-2H-pyran-4-yl)imidazo[5,1-f][1,2,4]triazin-4(3H)-one] | < 1000 | 230 | 337 | – | – | – |
| CC1CN(Cc2ccc(Cl)c(Cl)c2)CC1c1nn2c(C3CCOCC3)ncc2c(=O)[nH]1 (single isomer, unassigned; (+)) [(+)-2-((3,4-trans)-1-(3,4-dichlorobenzyl)-4-methylpyrrolidin-3-yl)-7-(tetrahydro-2H-pyran-4-yl)imidazo[1,5-f][1,2,4]triazin-4(3H)-one] | < 1000 | 2627 | 1297 | – | – | – |
| CC1CN(Cc2cc(Cl)cc(Cl)c2)CC1c1nn2c(C3CCOCC3)ncc2c(=O)[nH]1 (single isomer, unassigned; (+)) [(+)-2-((3,4-trans)-1-(3,5-dichlorobenzyl)-4-methylpyrrolidin-3-yl)-7-(tetrahydro-2H-pyran-4-yl)imidazo[5,1-f][1,2,4]triazin-4(3H)-one] | < 1000 | 92 | 93 | – | – | – |
| CC1CN(Cc2cc(F)cc(F)c2)CC1c1nn2c(C3CCOCC3)ncc2c(=O)[nH]1 (single isomer, unassigned; (+)) [(+)-2-((3,4-trans)-1-(3,5-difluorobenzyl)-4-methylpyrrolidin-3-yl)-7-(tetrahydro-2H-pyran-4-yl)imidazo[1,5-f][1,2,4]triazin-4(3H)-one] | < 1000 | 1043 | 1710 | – | – | – |
| CC1CN(Cc2cccc(-n3cccn3)c2)CC1c1nn2c(C3CCOCC3)ncc2c(=O)[nH]1 (single isomer, unassigned; (+)) [(+)-2-((3,4-trans)-1-(3-(1H-pyrazol-1-yl)benzyl)-4-methylpyrrolidin-3-yl)-7-(tetrahydro-2H-pyran-4-yl)imidazo[5,1-f][1,2,4]triazin-4(3H)-one] | < 1000 | 1490 | 612 | – | – | – |
| CC1CN(Cc2cccc(N(C)C)c2)CC1c1nn2c(C3CCOCC3)ncc2c(=O)[nH]1 (single isomer, unassigned; (+)) [(+)-2-((3,4-trans)-1-(3-(dimethylamino)benzyl)-4-methylpyrrolidin-3-yl)-7-(tetrahydro-2H-pyran-4-yl)imidazo[5,1-f][1,2,4]triazin-4(3H)-one] | < 1000 | 923 | 680 | – | – | – |
| CC1CN(Cc2cccc(Br)c2)CC1c1nn2c(C3CCOCC3)ncc2c(=O)[nH]1 (single isomer, unassigned; (+)) [(+)-2-((3,4-trans)-1-(3-bromobenzyl)-4-methylpyrrolidin-3-yl)-7-(tetrahydro-2H-pyran-4-yl)imidazo[5,1-f][1,2,4]triazin-4(3H)-one] | < 1000 | 92 | 243 | – | – | – |

Continued, values first:

| IC50 (PDE9A2; Table 1, 10 concentrations) [nM] | PDE1B selectivity (versus PDE9A2) (PDE1B; [1]) | PDE1A selectivity (versus PDE9A2) (PDE1A; [1]) | IC50 (PDE9A2) [nM] | PDE1B selectivity (versus PDE9A2) (PDE1B; [2]) | PDE1A selectivity (versus PDE9A2) (PDE1A; [3]) | SMILES |
| --- | --- | --- | --- | --- | --- | --- |
| < 1000 | 118 | 97 | – | – | – | CC1CN(Cc2cc(F)ccc2F)CC1c1nn2c(C3CCOCC3)ncc2c(=O)[nH]1 (single isomer, unassigned; (+)) [(+)-2-((3,4-trans)-1-(2,5-difluorobenzyl)-4-methylpyrrolidin-3-yl)-7-(tetrahydro-2H-pyran-4-yl)imidazo[5,1-f][1,2,4]triazin-4(3H)-one] |
| < 1000 | 279 | 363 | – | – | – | CC1CN(Cc2ccccc2N(C)C)CC1c1nn2c(C3CCOCC3)ncc2c(=O)[nH]1 (single isomer, unassigned; (+)) [(+)-2-((3,4-trans)-1-(2-(dimethylamino)benzyl)-4-methylpyrrolidin-3-yl)-7-(tetrahydro-2H-pyran-4-yl)imidazo[5,1-f][1,2,4]triazin-4(3H)-one] |
| < 1000 | 28 | 104 | – | – | – | CC1CN(Cc2ccccc2Br)CC1c1nn2c(C3CCOCC3)ncc2c(=O)[nH]1 (single isomer, unassigned; (+)) [(+)-2-((3,4-trans)-1-(2-bromobenzyl)-4-methylpyrrolidin-3-yl)-7-(tetrahydro-2H-pyran-4-yl)imidazo[5,1-f][1,2,4]triazin-4(3H)-one] |
| < 1000 | 48 | 92 | – | – | – | CC1CN(Cc2ccccc2Cl)CC1c1nn2c(C3CCOCC3)ncc2c(=O)[nH]1 (single isomer, unassigned; (+)) [(+)-2-((3,4-trans)-1-(2-chlorobenzyl)-4-methylpyrrolidin-3-yl)-7-(tetrahydro-2H-pyran-4-yl)imidazo[5,1-f][1,2,4]triazin-4(3H)-one] |
| < 1000 | 255 | 340 | – | – | – | COc1ccc(F)c(CN2CC(C)C(c3nn4c(C5CCOCC5)ncc4c(=O)[nH]3)C2)c1 (single isomer, unassigned; (+)) [(+)-2-((3,4-trans)-1-(2-fluoro-5-methoxybenzyl)-4-methylpyrrolidin-3-yl)-7-(tetrahydro-2H-pyran-4-yl)imidazo[5,1-f][1,2,4]triazin-4(3H)-one] |
| < 1000 | 442 | 300 | – | – | – | CC1CN(Cc2ccccc2F)CC1c1nn2c(C3CCOCC3)ncc2c(=O)[nH]1 (single isomer, unassigned; (+)) [(+)-2-((3,4-trans)-1-(2-fluorobenzyl)-4-methylpyrrolidin-3-yl)-7-(tetrahydro-2H-pyran-4-yl)imidazo[5,1-f][1,2,4]triazin-4(3H)-one] |
